Assay results reported in article PMC6780165, “Verruculosins A–B, New Oligophenalenone Dimers from the Soft Coral-Derived Fungus Talaromyces verruculosus” (Marine Drugs, 2019).

Columns and labels:
CDC25B = target: T1, CDC25B (Homo sapiens, UniProt P30305); assay: CDC25B enzymatic activity assay (OMFP dephosphorylation); type: biochemical; settings: OMFP substrate 10 μM, 100 nM CDC25B, 30 °C, pH 8.0; read-out: Anti-CDC25B IC50 (µM) ± SD
T1 sequence (P30305 1-580): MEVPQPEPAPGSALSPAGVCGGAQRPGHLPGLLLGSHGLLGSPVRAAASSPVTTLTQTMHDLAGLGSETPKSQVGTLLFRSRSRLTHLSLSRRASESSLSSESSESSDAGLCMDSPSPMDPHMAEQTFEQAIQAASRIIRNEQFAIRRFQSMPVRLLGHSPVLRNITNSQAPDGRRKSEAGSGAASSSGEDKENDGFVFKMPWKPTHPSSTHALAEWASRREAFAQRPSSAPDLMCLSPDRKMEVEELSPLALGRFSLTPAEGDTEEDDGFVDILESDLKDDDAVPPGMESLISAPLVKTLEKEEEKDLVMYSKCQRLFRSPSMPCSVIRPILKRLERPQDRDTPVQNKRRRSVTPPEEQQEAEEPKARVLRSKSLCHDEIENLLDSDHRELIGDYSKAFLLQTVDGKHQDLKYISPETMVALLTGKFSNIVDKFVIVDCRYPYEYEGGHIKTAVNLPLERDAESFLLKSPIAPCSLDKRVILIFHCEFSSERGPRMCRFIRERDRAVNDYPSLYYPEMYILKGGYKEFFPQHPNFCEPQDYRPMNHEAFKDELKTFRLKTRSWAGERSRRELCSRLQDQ
Procedure: The enzymatic activity of the CDC25B was determined at 30 °C by monitoring the dephosphorylation of 3-O-methylfluorescein phosphate (OMFP), which was used as a substrate for the CDC25B and can be monitored at a 535 nm emission wavelength and 485 nm excitation wavelength in the EnVisionmultilabel plate reader. The assay was measured in a 100 μL mixture system containing 50 mM Tris-HCl, pH 8.0, 50 mM NaCl, 10 μM OMFP, 100 nM CDC25B, 1 mM dithiothreitol (DTT), 1 mM ethylene diamine tetraacetic acid (EDTA), 1% glycerin, and 2 mg/L compound. The initial rate of the dephosphorylation was determined using the early linear region of the enzymatic reaction kinetic curve. DMSO and Na3VO4 were used as negative and positive controls, respectively.

EGFR tyrosine kinase = EGFR tyrosine kinase (Homo sapiens, UniProt P00533); assay: EGFR tyrosine kinase inhibitory activity (ELISA); type: biochemical; settings: poly(Glu, Tyr)4:1 substrate, 10 μM ATP, 60 min at 37 °C, read-out: Anti-EGFR IC50 (µM) ± SD
EGFR tyrosine kinase, sequence (P00533 25-1210): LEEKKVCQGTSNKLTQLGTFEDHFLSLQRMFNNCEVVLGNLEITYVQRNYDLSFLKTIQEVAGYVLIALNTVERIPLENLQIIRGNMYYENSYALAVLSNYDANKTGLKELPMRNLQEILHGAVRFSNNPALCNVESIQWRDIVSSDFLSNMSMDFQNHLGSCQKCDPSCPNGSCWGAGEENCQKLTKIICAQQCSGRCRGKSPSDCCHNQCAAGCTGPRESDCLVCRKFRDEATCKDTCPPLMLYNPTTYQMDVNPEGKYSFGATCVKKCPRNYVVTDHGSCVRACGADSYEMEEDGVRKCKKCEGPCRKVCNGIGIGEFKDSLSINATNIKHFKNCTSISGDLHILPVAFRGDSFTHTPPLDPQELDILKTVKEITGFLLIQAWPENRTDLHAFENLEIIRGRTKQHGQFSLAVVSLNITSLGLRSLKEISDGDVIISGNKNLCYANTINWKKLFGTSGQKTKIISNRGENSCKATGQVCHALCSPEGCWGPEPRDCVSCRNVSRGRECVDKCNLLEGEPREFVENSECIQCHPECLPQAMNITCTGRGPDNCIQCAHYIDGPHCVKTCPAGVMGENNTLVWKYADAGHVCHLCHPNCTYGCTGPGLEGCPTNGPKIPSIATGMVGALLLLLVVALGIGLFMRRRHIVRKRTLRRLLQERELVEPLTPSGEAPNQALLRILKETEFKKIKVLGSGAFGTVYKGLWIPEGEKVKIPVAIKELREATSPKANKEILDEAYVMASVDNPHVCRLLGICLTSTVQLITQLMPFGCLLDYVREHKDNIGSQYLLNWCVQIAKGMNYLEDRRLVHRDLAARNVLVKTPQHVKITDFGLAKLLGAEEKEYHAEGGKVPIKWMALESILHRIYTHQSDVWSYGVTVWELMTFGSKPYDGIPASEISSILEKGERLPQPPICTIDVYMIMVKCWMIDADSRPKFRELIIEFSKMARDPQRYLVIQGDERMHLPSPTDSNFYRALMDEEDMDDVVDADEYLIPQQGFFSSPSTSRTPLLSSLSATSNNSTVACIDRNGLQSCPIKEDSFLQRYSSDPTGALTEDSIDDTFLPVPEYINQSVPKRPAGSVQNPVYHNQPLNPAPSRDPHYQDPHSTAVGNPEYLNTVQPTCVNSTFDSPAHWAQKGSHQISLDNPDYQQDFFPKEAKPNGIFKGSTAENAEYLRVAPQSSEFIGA
Procedure: The EGFR tyrosine kinase inhibitory activity was tested using enzyme-linked immunosorbent assay (ELISA). The compounds were dissolved in dimethyl sulfoxide (DMSO) buffer solution and were then distributed to a 96-well plate pre-coated with poly(Glu, Tyr)4:1 as a substrate. Each well was treated with 50 μL of 10 μM ATP solution diluted with reaction buffer and the reaction was started by the addition of EGFR tyrosine kinase. After 60 min of incubation at 37 °C, the plate was washed three times with phosphate buffered saline containing 0.1% Tween 20 (PBST). Next, antiphosphotyrosine (PY99) antibody 100 μL was added. After incubation for 30 min at 37 °C, the plate was washed three times and goat anti-mouse IgG horseradish peroxidase was added. The plate was reincubated at 37 °C for 30 min and washed as before. Lastly, 100 μL of color development solution was added and the plate was incubated at room temperature until color emerged. The reaction was terminated by adding 50 μL of 2 M H2SO4, and the absorbance was measured on the Molecular Devices SpectraMax 190 microplatereader at 490 nm [20]. The known EGFR inhibitor, afatibib, was utilized as a positive control, and 0.1% (v/v) DMSO was used as a negative control.

[1] = test system: murine leukemia L-1210 cells; parameters: method as in ref 5, ref 6; settings: cited from earlier work
[2] = test system: mitochondrial respiration; parameters: method as in PMID 7122988; settings: cited from earlier work
[3] = test system: human breast cancer (MCF-7) cells; parameters: method as in ref 8, ref 9; settings: cited from earlier work
[4] = test system: human non-small cell lung carcinoma (NCL-H460) cells; parameters: method as in ref 8, ref 9; settings: cited from earlier work
[5] = test system: human cervical cancer (Hela) cells; parameters: method as in ref 8, ref 9; settings: cited from earlier work

| IC50 (CDC25B) | IC50 (EGFR tyrosine kinase) | Compound | cytotoxicity against MCF-7 cells (in words) [3] | cytotoxicity against NCL-H460 cells (in words) [4] | activity against Hela cells (in words) [5] | further results |
| --- | --- | --- | --- | --- | --- | --- |
| 0.38 ± 0.03 µM | 0.92 ± 0.25 µM | COC12c3c(C)cc(O)c4c3C3=C(OC(C)(O)CC3OC4=O)C1C13COC(=O)c4c(O)cc(C)c(c41)C(=O)C2C3OC(C)=O (centres unmarked) [Compound 1, verruculosin A] |  |  |  |  |
|  | 1.22 ± 0.53 µM | COC(=O)CC1OC(=O)c2c(O)cc(C)c3c2C1=C(O)C1C24COC(=O)c5c(O)cc(C)c(c52)C(=O)C(C4OC(C)=O)C31OC (centres unmarked) [Compound 2, verruculosin B] |  |  |  |  |
| 0.4 ± 0.02 µM | 4.41 ± 2.32 µM | COC1OC(=O)c2c(O)cc(C)c3c4c(c(O)c1c23)C12COC(=O)c3c(O)cc(C)c(c31)C(=O)C4C2OC(C)=O (centres unmarked) [Compound 3, bacillisporin F] |  |  |  |  |
| 0.26 ± 0.06 µM | 0.24 ± 0.17 µM | CC(=O)OC1C2C(=O)c3c(C)cc(O)c4c3C1(COC4=O)c1c(O)c3c4c(c(O)cc(C)c4c12)C(=O)OC3=O (centres unmarked) [Compound 5, xenoclauxin] |  |  |  |  |
| 0.52 ± 0.02 µM |  | [Na+].[Na+].[Na+].[O]=[V]([O-])([O-])[O-] [Na3VO4, reference compound] |  |  |  |  |
|  |  | Bascillosporin A | high cytotoxicity | high cytotoxicity |  |  |
|  |  | Bascillosporin B [Bascillosporins B] | moderately active | moderately active | moderately active |  |
|  |  | Bascillosporin C | moderately active | moderately active | moderately active |  |
|  |  | Bascillosporin H | moderately active | moderately active | moderately active |  |

| Compound | IC50 (CDC25B) | IC50 (EGFR tyrosine kinase) | cytotoxicity against MCF-7 cells (in words) [3] | cytotoxicity against NCL-H460 cells (in words) [4] | activity against Hela cells (in words) [5] | further results |
| --- | --- | --- | --- | --- | --- | --- |
| COC12c3c(C)cc(O)c4c(=O)occ(c34)C(=O)C1C13COC(=O)c4c(O)cc(C)c(c41)C(=O)C2C3OC(C)=O (centres unmarked) [Compound 4, duclauxin] | 0.75 ± 0.18 µM | 0.95 ± 0.64 µM |  |  |  | activity against murine leukemia L-1210 cells (in words) [1]: highly active; inhibitory effects on mitochondrial respiration (in words) [2]: strong inhibitory effects |
